This note sets out measurements from US20080045514A1 (Cytovia, Inc., priority 2006, published 2008).

Broadly, the EC50 is the concentration needed to bring the measured effect to its halfway point.

Molecules are shown by their SMILES. Where a name gives a salt, the structure may show the parent alone.

What all share (type): cell-based
The test system of assay [1] is human hepatocellular carcinoma cell line SNU398. Nature of the assay: Caspase cascade activation (EC50), SNU398. Particulars: Homo sapiens, SNU-398; SNU398 cells; caspase cascade activation; read-out: caspase potency (EC50) SNU398. A digest of the protocol: (§1)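 48 h compound exposure (0.016–10 μM final) at 37 °C, 5% CO2; then DEVD-R110 substrate in lysolecithin/DTT/PIPES pH 7.2 buffer, 3 h RT. Fluorescence ex485/em530; net RFU = T=3 h minus control T=0; ratio to control; sigmoidal fit → EC50 (nM).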

For assay [2], the system named is human lymphoma cell line Raji. Nature of the assay: Caspase cascade activation (EC50), Raji. Particulars: Homo sapiens, RAJI cells, read-out: caspase potency (EC50) RAJI. The method, then:
(§2) Human breast cancer cell lines T-47D, human hepatocellular carcinoma cell line SNU398, human colon carcinoma cell line HCT116, human cancer cell line H1299, human Burkitt's lymphoma cell line Namalwa, human lymphoma cell line Raji, and human B cell lymphoblastoid cell line Ramos were grown according to media component mixtures designated by American Type Culture Collection+10% FCS (Invitrogen Corporation), in a 5% CO2-95% humidity incubator at 37° C. T-47D and H1299 cells were maintained at a cell density between 50 and 80% confluency at a cell density of 0.1 to 0.6×10^6 cells/mL. Cells were harvested at 600×g and resuspended at 0.65×10^6 cells/mL into appropriate media+10% FCS. An aliquot of 22.5 μL of cells was added to a well of a 384-well microtiter plate containing 2.5 μL of a 10% DMSO in RPMI-1640 media solution containing 0.16 to 100 μM of 3-(2-chlorophenyl)-6-(3,4-methylenedioxyphenyl)-7H-[1,2,4]triazolo[3,4-b][1,3,4]thiadiazine or other test compound (0.016 to 10 μM final). An aliquot of 22.5 μL of cells was added to a well of a 384-well microtiter plate containing 2.5 μL of a 10% DMSO in RPMI-1640 media solution without test compound as the control sample. The samples were mixed by agitation and then incubated at 37° C. for 48 h in a 5% CO2-95% humidity incubator. After incubation, the samples were removed from the incubator and 25 μL of a solution containing 14 μM of N—(Ac-DEVD)-N′-ethoxycarbonyl-R110 (SEQ ID No.:1) fluorogenic substrate (Cytovia, Inc.; WO99/18856), 20% sucrose (Sigma), 20 mM DTT (Sigma), 200 mM NaCl (Sigma), 40 mM Na PIPES buffer pH 7.2 (Sigma), and 500 μg/mL lysolecithin (Calbiochem) was added. The samples were mixed by agitation and incubated at room temperature. Using a fluorescent plate reader (Model SPECTRAfluor Plus, Tecan), an initial reading (T=0) was made approximately 1-2 min after addition of the substrate solution, employing excitation at 485 nm and emission at 530 nm, to determine the background fluorescence of the control sample. After the 3 h incubation, the samples were read for fluorescence as above (T=3 h). Calculation: The Relative Fluorescence Unit values (RFU) were used to calculate the sample readings as follows: RFU(T=3H)−Control RFU(T=0)=Net RFU(T=3h) The activity of caspase cascade activation was determined by the ratio of the net RFU value for 3-(2-chlorophenyl)-6-(3,4-methylenedioxyphenyl)-7H-[1,2,4]triazolo[3,4-b][1,3,4]thiadiazine (Example P) or other test compound to that of control samples. The EC50 (nM) was determined by a sigmoidal dose-response calculation (Prism 3.0, GraphPad Software Inc.).

In assay [3] the test system is human colon carcinoma cell line HCT116. Nature of the assay: Caspase cascade activation (EC50), HCT116. Particulars: Homo sapiens, HCT-116; HCT116 cells; caspase cascade activation; read-out: caspase potency (EC50) HCT116. In a few lines: as §1
The subject of assay [4] is human B cell lymphoblastoid cell line Ramos. Nature of the assay: Caspase cascade activation (EC50), Ramos. Particulars: Homo sapiens, RAMOS cells, read-out: caspase potency (EC50) RAMOS. The method, then:
as §2

Assay [5] has as its system human breast cancer cell line T-47D. Nature of the assay: Caspase cascade activation (EC50), T-47D. Particulars: Homo sapiens; T47D cells; caspase cascade activation; read-out: caspase potency (EC50) T47D. A digest of the protocol:
as §1

The subject of assay [6] is human Burkitt's lymphoma cell line Namalwa. Nature of the assay: Caspase cascade activation (EC50), Namalwa. Particulars: Homo sapiens, Burkitts lymphoma cell; Namalwa cells; caspase cascade activation; read-out: caspase potency (EC50) Namalwa. A digest of the protocol: as §1

With `CCOc1ccc(C2=Nn3c(nnc3-c3ccc(F)cc3)SC2)cc1` [Example P2, 3-(4-Fluorophenyl)-6-(4-ethoxyphenyl)-7H-[1,2,4]triazolo[3,4-b][1,3,4]thiadiazine], the EC50 in assay [1] turned out to be 0.473 µM; in assay [2], 0.901 µM; in assay [3] it was 1.47 µM; in assay [4], 0.66 µM; in assay [5], 2.16 µM; in assay [6] it was 0.88 µM.
For `c1cc2c(cc1C1=Nn3c(nnc3C3CCCCC3)SC1)OCO2` [Example M2, 3-Cyclohexyl-6-(3,4-methylenedioxyphenyl)-7H-[1,2,4]triazolo[3,4-b][1,3,4]thiadiazine], the EC50 in assay [1] was 4.77 µM; in assay [2], 5.19 µM; in assay [3] it was greater than 10 µM; in assay [4], 5.15 µM; in assay [5], 4.33 µM; in assay [6] it was 5.24 µM.
As to `Cc1ccc(-c2nnc3n2N=C(c2ccc4c(c2)OCO4)CS3)cc1` [C, 3-(4-Methylphenyl)-6-(3,4-methylenedioxyphenyl)-7H-[1,2,4]triazolo[3,4-b][1,3,4]thiadiazine], the EC50 in assay [1] was 0.599 µM; in assay [2], 0.568 µM; in assay [3] it was greater than 10 µM; in assay [4] it was 0.711 µM; in assay [5], 0.683 µM; in assay [6], 0.58 µM.
Take `CCc1nnc2n1N=C(c1ccc(OC)cc1)CS2` [Example J2, 3-Ethyl-6-(4-methoxyphenyl)-7H-[1,2,4]triazolo[3,4-b][1,3,4]thiadiazine]: the EC50 in assay [1] was 5.08 µM; in assay [2], 5.56 µM; in assay [3], greater than 10 µM; in assay [4] it was 5.42 µM; in assay [5], 5.63 µM; in assay [6], greater than 10 µM.
On to `COc1cc(-c2nnc3n2N=C(c2cccc(Br)c2)CS3)cc(OC)c1OC` [Example X1, 3-(3,4,5-Trimethoxyphenyl)-6-(3-bromophenyl)-7H-[1,2,4]triazolo[3,4-b][1,3,4]thiadiazine], for which the EC50 in assay [1] came out at 2.65 µM; in assay [2] it was 3.41 µM; in assay [3], 2.48 µM; in assay [4], 2.51 µM; in assay [5], 2.64 µM; in assay [6], 2.51 µM.
As to `COc1cc(-c2nnc3n2N=C(c2ccc(O)c(O)c2)CS3)cc(OC)c1OC` [Example Z1, 3-(3,4,5-Trimethoxyphenyl)-6-(3,4-dihydroxyphenyl)-7H-[1,2,4]triazolo[3,4-b][1,3,4]thiadiazine], the EC50 in assay [1] was found to be 0.101 µM; in assay [2] it was 0.176 µM; in assay [3] it was 0.24 µM; in assay [4] it was 0.219 µM; in assay [5] it was 0.284 µM; in assay [6], 0.2 µM.
Consider `COc1ccc(C2=Nn3c(nnc3-c3ccc(F)cc3)SC2)cc1` [Example S2], for which the concentration giving a half-maximal response (EC50) was found to be 0.271 µM in assay [1]; 0.569 µM in assay [2]; 0.7 µM in assay [3]; 0.339 µM in assay [4]; 1.66 µM in assay [5]; 0.546 µM in assay [6].
Take `Fc1ccccc1-c1nnc2n1N=C(c1ccc3c(c1)OCO3)CS2` [Example Q1, 3-(2-Fluorophenyl)-6-(3,4-methylenedioxyphenyl)-7H-[1,2,4]triazolo[3,4-b][1,3,4]thiadiazine]: the EC50 stood at 0.257 µM in assay [1]; 0.484 µM in assay [2]; 0.551 µM in assay [3]; 0.264 µM in assay [4]; 0.277 µM in assay [5]; 0.25 µM in assay [6].
Take `COc1cc(-c2nnc3n2N=C(c2ccc4ccccc4c2)CS3)cc(OC)c1OC` [Example Y1, 3-(3,4,5-Trimethoxyphenyl)-6-(2-naphthyl)-7H-[1,2,4]triazolo[3,4-b][1,3,4]thiadiazine]: the EC50 in assay [1] amounted to 0.081 µM; in assay [2], 0.127 µM; in assay [3], 0.119 µM; in assay [4] it was 0.099 µM; in assay [5], 0.556 µM; in assay [6], 0.139 µM.
Turning to `Oc1ccc(C2=Nn3c(nnc3-c3ccc(Cl)cc3)SC2)cc1` [Example 6, 3-(4-Chlorophenyl)-6-(4-hydroxyphenyl)-7H-[1,2,4]triazolo[3,4-b][1,3,4]thiadiazine hydrobromide], the 50% effective concentration (EC50) is 5.43 µM in assay [1]; greater than 10 µM in assay [2]; greater than 10 µM in assay [3]; 7.65 µM in assay [4]; 0.855 µM in assay [5]; greater than 10 µM in assay [6].
On to `CCN(CC)c1ccc(C2=Nn3c(nnc3-c3ccc(OC)c(OC)c3)SC2)cc1` [Example 22, 6-(4-Diethylaminophenyl)-3-(3,4-dimethoxyphenyl)-7H-[1,2,4]triazolo[3,4-b][1,3,4]thiadiazine], for which the EC50 in assay [1] was determined as 0.122 µM; in assay [2], 0.27 µM; in assay [3], 0.188 µM; in assay [4], 0.258 µM; in assay [5], 0.534 µM; in assay [6], 0.214 µM.
For the molecule `COc1ccc(-c2nnc3n2N=C(c2ccc([N+](=O)[O-])cc2)CS3)cc1OC` [Example 28, 3-(3,4-Dimethoxyphenyl)-6-(4-nitrophenyl)-7H-[1,2,4]triazolo[3,4-b][1,3,4]thiadiazine], the concentration giving a half-maximal response (EC50) in assay [1], in assay [2], in assay [3], in assay [4], in assay [5] and in assay [6] was greater than 10 µM each time.
Consider `COc1cc(-c2nnc3n2N=C(c2ccc(F)cc2)CS3)cc(OC)c1OC` [Example V1, 3-(3,4,5-Trimethoxyphenyl)-6-(4-fluorophenyl)-7H-[1,2,4]triazolo[3,4-b][1,3,4]thiadiazine], for which the concentration for a half-maximal effect (EC50) in assay [1] is 1.04 µM; in assay [2], 0.622 µM; in assay [3], greater than 10 µM; in assay [4] it was 0.463 µM; in assay [5], 1.32 µM; in assay [6], 0.321 µM.
For the molecule `COc1cc(-c2nnc3n2N=C(c2ccc(Cl)cc2)CS3)cc(OC)c1OC` [Example W1, 3-(3,4,5-Trimethoxyphenyl)-6-(4-chlorophenyl)-7H-[1,2,4]triazolo[3,4-b][1,3,4]thiadiazine], the EC50 in assay [1] came out at 0.111 µM; in assay [2], 0.072 µM; in assay [3], 0.13 µM; in assay [4], 0.078 µM; in assay [5], 0.276 µM; in assay [6], 0.153 µM.
Consider `COc1cc(-c2nnc3n2N=C(c2ccc(Br)cc2)CS3)cc(OC)c1OC` [Example U1, 3-(3,4,5-Trimethoxyphenyl)-6-(4-bromophenyl)-7H-[1,2,4]triazolo[3,4-b][1,3,4]thiadiazine], for which the concentration giving a half-maximal response (EC50) in assay [1] is 0.042 µM; in assay [2] it was 0.065 µM; in assay [3], 0.065 µM; in assay [4] it was 0.039 µM; in assay [5] it was 0.145 µM; in assay [6] it was 0.04 µM.
Consider `COc1ccc(C2=Nn3c(nnc3-c3cccc(OC(C)C)c3)SC2)cc1` [Example K2, 3-(3-Isopropyloxyphenyl)-6-(4-methoxyphenyl)-7H-[1,2,4]triazolo[3,4-b][1,3,4]thiadiazine], for which the EC50 in assay [1] was 5.56 µM; in assay [2], 5.47 µM; in assay [3], greater than 10 µM; in assay [4] it was 5.84 µM; in assay [5], 5.47 µM; in assay [6] it was 5.53 µM.
